Reference: the NIST ThermoML archive (doi:10.1021/acs.jced.9b00286)
± gives the expanded uncertainty stated by the source.

Details: Crystal; DSC

- Triple point temperature: 429.75 ± 1.2 K
Compound: OCc1ccc(O[C@@H]2O[C@H](CO)[C@@H](O)[C@H](O)[C@H]2O)cc1 [gastrodin]
